Reference: patent US9763954B2, “Therapeutical uses of eslicarbazepine” (BIAL-PORTELA & CA, S.A., priority 2007, dated 2017)
“Also recorded” adds a separate entry of the source.

Legend:
P-glycoprotein (P-gp) = P-glycoprotein (P-gp) (Mus musculus, UniProt P21447); assay: Brain/plasma ratio in mice pre-treated with the P-gp inhibitor verapamil; conditions: for substrate for P-gp: concluded from verapamil pre-treatment; for effect of verapamil on brain/plasma ratio: verapamil 20 mg/kg 30 min before 100 mg/kg intraperitoneally, FIG. 2
Description: (§2) CD-1 mice weighing 30-35 g were maintained under controlled environmental conditions (23-24° C.) for at least 5 days before the experiment. […] In the second series of experiments, mice pre-treated with vehicle, verapamil (20 mg/kg) or probenecid (100 mg/kg) were given 30 min later intraperitoneally S-licarbazepine or R-licarbazepine (100 mg/kg). […] After collection of blood, plasma was obtained by centrifugation. Brain samples were homogenised in phosphate buffer (pH 5; 4 mL/g) followed by centrifugation and collection of the supernatant. Plasma and the tissue supernatant were stored frozen until analysis. The assay of S-licarbazepine and R-licarbazepine was performed using a HPLC-UV or LC-MS method following solid phase extraction.

[1] = test system: partial epilepsy refractory patients; conditions: cited from earlier work
[2] = test system: Multiple Resistant Proteins (MRP); assay: Brain/plasma ratio in mice pre-treated with the MRP inhibitor probenecid; conditions: for substrate for MRP: concluded from probenecid pre-treatment
Description: as §2

NMRI mice [3] = assay: Corneal kindling procedure (acquisition of kindling); type: in vivo
Description: Vehicle (30% DMSO in distilled water) or the compounds dissolved in 30% DMSO were administered intraperitoneally twice daily. NMRI mice were stimulated twice daily (interstimulation interval 6-7 h) on twelve consecutive days. The electrostimulations with current intensities of 3 mA and duration of 3 s (pulse frequency 50 Hz) were applied via corneally placed saline-soaked copper electrodes. A stimulator was used to deliver a constant current regardless of the impedance of the test object. Seizure severity was ranked according to a modified system of Racine (Racine, 1972): 1, mild facial clonus and eye blinking; 2, severe facial clonus, head nodding, chewing; 3, unilateral or alternating forelimb clonus; 4, bilateral forelimb clonus with rearing […]; 5, bilateral forelimb clonus with rearing and falling; 6, tonic fore- and/or hindlimb extension.

[4] = Brain pharmacokinetics (brain access) after oral administration to CD-1 mice; type: in vivo; conditions: for presence of the opposite enantiomer in brain: analyte found after administration of the other enantiomer
Description: (§1) The following pharmacokinetic parameters for S-licarbazepine and R-licarbazepine were derived by non-compartmental analysis from the concentration versus time profiles: maximum observed plasma drug concentration (Cmax), time at which the Cmax occurred (tmax), area under the plasma concentration versus time curve (AUC) from time zero to the last sampling time at which concentrations were at or above the limit of quantification (AUC0-t) and AUC from time zero to infinity (AUC0-∞), elimination half-life (t1/2) and mean residence time (MRT). The pharmacokinetic parameters were determined using WinNonlin (version 4.0). Summary statistics of all data for each treatment and scheduled sampling times were reported, as appropriate, using the geometric mean, arithmetic mean, standard deviation (SD), coefficient of variation (CV), median, minimum and maximum. The statistical package SAS Version 8.2 or higher (SAS Institute, Cary, USA) was used in all computations when considered appropriate.

[5] = Plasma pharmacokinetics after oral administration to CD-1 mice; type: in vivo
Description: as §1

P-gp or MRP = conditions: cited from earlier work; for category of P-gp or MRP substrates: AEDs listed in the discussion
[6] = test system: patients with drug-resistant epilepsy; conditions: six months after initiation of therapy; 120 patients who had tried at least 3-4 other AEDs; cited from earlier work
NMRI mice [7] = assay: Formalin paw test; type: in vivo; conditions: 100 mg/kg p.o., 120 minutes before the test; FIG. 6
Description: The method, which detects analgesic/anti-inflammatory activity, follows that described by Wheeler-Aceto et al (Wheeler-Aceto et al., 1991). NMRI mice were given an intraplantar injection of 5% formalin (25 μl) into the posterior left paw. […] The time spent licking was counted for 15 minutes, beginning 15 minutes after injection of formalin. 10 mice were studied per group. The test was performed blind. S-Licarbazepine and R-licarbazepine were tested at the dose of 100 mg/kg p.o., administered 120 minutes before the test (i.e. […]), and compared with a vehicle control group in each experiment.

[8] = eslicarbazepine acetate 100 mg/kg, i.p., FIG. 3
[9] = 100 mg/kg twice daily, twelve days
[10] = brain, after 350 mg/kg R-licarbazepine oral, CD-1 mice
[11] = plasma, after 350 mg/kg R-licarbazepine oral, CD-1 mice

Sequence of P-glycoprotein (P-gp) (P21447 whole entry): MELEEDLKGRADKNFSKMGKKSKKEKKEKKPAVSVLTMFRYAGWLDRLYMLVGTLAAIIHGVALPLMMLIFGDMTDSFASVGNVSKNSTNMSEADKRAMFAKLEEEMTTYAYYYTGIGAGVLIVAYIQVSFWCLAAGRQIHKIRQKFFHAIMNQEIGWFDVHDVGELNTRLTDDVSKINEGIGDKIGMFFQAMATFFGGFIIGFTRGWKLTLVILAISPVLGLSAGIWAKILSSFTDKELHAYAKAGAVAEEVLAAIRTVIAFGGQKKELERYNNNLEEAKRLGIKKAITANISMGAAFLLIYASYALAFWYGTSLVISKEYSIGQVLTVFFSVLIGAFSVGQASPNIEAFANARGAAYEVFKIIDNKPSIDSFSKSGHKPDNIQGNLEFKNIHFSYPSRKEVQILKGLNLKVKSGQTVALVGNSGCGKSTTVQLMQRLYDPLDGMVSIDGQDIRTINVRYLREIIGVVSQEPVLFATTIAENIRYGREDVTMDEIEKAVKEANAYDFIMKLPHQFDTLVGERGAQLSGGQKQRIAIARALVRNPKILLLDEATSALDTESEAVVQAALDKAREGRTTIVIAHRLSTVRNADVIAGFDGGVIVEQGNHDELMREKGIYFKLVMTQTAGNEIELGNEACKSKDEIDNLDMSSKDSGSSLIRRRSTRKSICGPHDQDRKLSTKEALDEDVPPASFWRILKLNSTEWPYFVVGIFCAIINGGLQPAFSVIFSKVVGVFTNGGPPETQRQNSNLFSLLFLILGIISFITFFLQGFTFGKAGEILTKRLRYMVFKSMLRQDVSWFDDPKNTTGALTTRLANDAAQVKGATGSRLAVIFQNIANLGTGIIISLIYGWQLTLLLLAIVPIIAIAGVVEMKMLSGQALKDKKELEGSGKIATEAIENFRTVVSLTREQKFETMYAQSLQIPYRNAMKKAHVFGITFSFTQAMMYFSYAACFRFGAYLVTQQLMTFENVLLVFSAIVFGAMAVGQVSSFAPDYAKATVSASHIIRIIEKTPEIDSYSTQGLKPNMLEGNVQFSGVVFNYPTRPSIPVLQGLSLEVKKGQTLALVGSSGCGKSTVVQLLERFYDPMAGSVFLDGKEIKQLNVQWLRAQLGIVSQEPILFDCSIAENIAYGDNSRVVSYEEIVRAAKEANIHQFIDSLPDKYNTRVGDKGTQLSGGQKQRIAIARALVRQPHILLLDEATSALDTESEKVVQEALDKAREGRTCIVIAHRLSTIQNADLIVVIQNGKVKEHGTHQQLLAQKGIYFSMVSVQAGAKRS

CC(=O)O[C@H]1Cc2ccccc2N(C(N)=O)c2ccccc21 [eslicarbazepine acetate, (S)-(−)-10-acetoxy-10,11-dihydro-5H-dibenz/b,f/azepine-5-carboxamide]
effect of verapamil on S-licarbazepine brain/plasma ratio after eslicarbazepine acetate (P-glycoprotein (P-gp); [8]): failed to affect | patients that became seizure free ([1]; 1 month after initiation of therapy): approximately 25% | efficacy in partial epilepsy refractory patients ([1]; administered once-daily): very efficacious | effect of probenecid on S-licarbazepine brain/plasma ratio after eslicarbazepine acetate [2, 8]: failed to affect

NC(=O)N1c2ccccc2C[C@H](O)c2ccccc21 [S-licarbazepine, (S)-(+)-10,11-dihydro-10-hydroxy-5H dibenz/b,f/azepine-5-carboxamide]
substrate for P-gp (P-glycoprotein (P-gp)): not a substrate | effect of verapamil on brain/plasma ratio (P-glycoprotein (P-gp)): failed to affect | adverse effects during the course of the experiment (NMRI mice [3]; [9]): no adverse effects were obvious | substrate for MRP [2]: not a substrate | effect of probenecid on brain/plasma ratio ([2]; probenecid 100 mg/kg 30 min before 100 mg/kg intraperitoneally, FIG. 2): failed to affect | brain/plasma ratio (considering either Cmax or AUC) ([4]; FIG. 1, compared with R-licarbazepine): considerably greater | presence of the opposite enantiomer in brain [4]: almost negligible | AUCbrain(S-Licarbazepine)/AUCbrain(R-Licarbazepine) ([4]; brain exposure ratio, each enantiomer given orally 350 mg/kg): 1.9 | AUC(0-inf) ([4]; mouse, brain, after 350 mg/kg S-licarbazepine oral, CD-1 mice): 111 µg·h/mL | AUC(0-t) ([4]; mouse, brain, after 350 mg/kg S-licarbazepine oral, CD-1 mice, read-out: AUC0-t): 109 µg·h/mL | Cmax ([4]; mouse, brain, after 350 mg/kg S-licarbazepine oral, CD-1 mice, read-out: Cmax): 12.3 µg/mL | MRT ([4]; mouse, brain, after 350 mg/kg S-licarbazepine oral, CD-1 mice, read-out: MRT): 7.84 h | tmax ([4]; mouse, brain, after 350 mg/kg S-licarbazepine oral, CD-1 mice, read-out: tmax): 1 h | half-life ([4]; mouse, brain, after 350 mg/kg S-licarbazepine oral, CD-1 mice, read-out: t½ (converted)): 4.87 h | MRT ([5]; CD-1, mouse, oral, 350 mg/kg, plasma, approximate range stated for both enantiomers, read-out: mean residence time (MRT)): 10 to 12 h | half-life ([5]; CD-1, mouse, oral, 350 mg/kg, plasma, approximate value stated for both enantiomers, read-out: elimination half-life (t1/2) (converted)): ~8 h | AUC(0-t) ([5]; CD-1, mouse, plasma, po, 350 mg/kg, plasma, after 350 mg/kg R-licarbazepine oral, CD-1 mice, read-out: AUC0-t): 4.58 µg·h/mL | Cmax ([5]; CD-1, mouse, plasma, po, 350 mg/kg, plasma, after 350 mg/kg R-licarbazepine oral, CD-1 mice, read-out: Cmax): 1.02 µg/mL | AUC(0-t) ([5]; CD-1, mouse, plasma, po, 350 mg/kg, plasma, after 350 mg/kg S-licarbazepine oral, CD-1 mice, read-out: AUC0-t): 187 µg·h/mL | Cmax ([5]; CD-1, mouse, plasma, po, 350 mg/kg, plasma, after 350 mg/kg S-licarbazepine oral, CD-1 mice, read-out: Cmax): 41.3 µg/mL | amount detectable in plasma ([5]; S-licarbazepine in plasma after administration of R-licarbazepine): small amounts | AUC(0-inf) ([5]; mouse, plasma, after 350 mg/kg S-licarbazepine oral, CD-1 mice): 258 µg·h/mL | MRT ([5]; mouse, plasma, after 350 mg/kg S-licarbazepine oral, CD-1 mice, read-out: MRT): 11.7 h | tmax ([5]; mouse, plasma, after 350 mg/kg S-licarbazepine oral, CD-1 mice, read-out: tmax): 0.25 h | half-life ([5]; mouse, plasma, after 350 mg/kg S-licarbazepine oral, CD-1 mice, read-out: t½ (converted)): 7.93 h | absorption after oral administration ([5]; oral, CD-1 mice): rapidly absorbed

NC(=O)OCC(COC(N)=O)c1ccccc1 [felbamate]
category of P-gp or MRP substrates (P-gp or MRP): P-gp or MRP substrates

NC(=O)N1c2ccccc2C=Cc2ccccc21 [carbamazepine]
category of P-gp or MRP substrates (P-gp or MRP): P-gp or MRP substrates

CC[C@@H](C(N)=O)N1CCCC1=O [Levetiracetam]
patients seizure-free [6]: 32% | substrate for either P-gp or MRP1/2 (P-gp or MRP; verapamil and probenecid did not increase brain penetration): not to be a substrate

NC(=O)N1c2ccccc2C[C@@H](O)c2ccccc21 [R-licarbazepine]
substrate for P-gp (P-glycoprotein (P-gp)): is a substrate | effect of verapamil on brain/plasma ratio (P-glycoprotein (P-gp)): markedly increased; also recorded: equals that of S-licarbazepine in vehicle-treated animals | effect on acquisition of kindling (NMRI mice [3]; 100 mg/kg twice daily intraperitoneally, twelve days): no inhibitory effect | adverse effects during the course of the experiment (NMRI mice [3]; [9]): no adverse effects were obvious | mean seizure severity versus vehicle control group (NMRI mice [3]; 100 mg/kg twice daily, S-lic: all sessions of first three days, R-lic: all sessions except afternoon of day 8): no significant differences | number of stimulations necessary to induce a seizure with a given severity score (NMRI mice [3]; 100 mg/kg twice daily, score 3 and 4 (S-lic), score 3, 4, 5 and 6 (R-lic), versus control): did not differ | animals that had reached the kindling criterion (at least one generalized seizure, score 4-6) (NMRI mice [3]; at termination of treatment, day 12): all of the treated animals | licking time versus vehicle controls (NMRI mice [7]): did not attain statistical significance | substrate for MRP [2]: not for MRP | presence of the opposite enantiomer in brain [4]: almost negligible | AUC0-∞ [4, 10]: 60.037 µg·h/mL | AUC(0-t) [4, 10]: 51.516 µg·h/mL | Cmax [4, 10]: 8.533 µg/mL | MRT [4, 10]: 11.34 h | tmax [4, 10]: 0.75 h | t½ [4, 10]: 7.91 h | absorption after oral administration ([5]; oral, CD-1 mice): rapidly absorbed | AUC0-∞ [5, 11]: 231.716 µg·h/mL | AUC(0-t) [5, 11]: 203.705 µg·h/mL | Cmax [5, 11]: 69.946 µg/mL | MRT [5, 11]: 10.12 h | tmax [5, 11]: 0.25 h | t½ [5, 11]: 8.11 h | elimination half-life (t1/2) ([5]; plasma, approximate value stated for both enantiomers): ≈ 8 h

O=C1NC(=O)C(c2ccccc2)(c2ccccc2)N1 [phenytoin]
category of P-gp or MRP substrates (P-gp or MRP): P-gp or MRP substrates

NC(=O)N1c2ccccc2CC(=O)c2ccccc21 [oxcarbazepine]
category of P-gp or MRP substrates (P-gp or MRP): P-gp or MRP substrates

CCC1(c2ccccc2)C(=O)NC(=O)NC1=O [phenobarbital]
category of P-gp or MRP substrates (P-gp or MRP): P-gp or MRP substrates

NCC1(CC(=O)O)CCCCC1 [Gabapentin]
licking time versus vehicle controls (NMRI mice [7]): significantly (p<0.05) decreased
